What all share (test): inhibition of tumour cell growth, NCI panel, 48 h
Assay [1] relates to CAKI-1.
For assay [2], the system named is COLO 205.
The subject of assay [3] is DMS-273.
The test system of assay [4] is IGROV-1.
The test system of assay [5] is K562.
In assay [6] the test system is LOX IMVI.
Assay [7] deals with M14.
Assay [8] has as its system OVCAR-4.
Assay [9] concerns RXF 393.
The subject of assay [10] is SK-MEL-28.
Assay [11] relates to SNB-19.
The subject of assay [12] is SNB-75.
Assay [13] deals with U-251.
Assay [14] deals with NCI-H522.
Assay [15] deals with A498.
Assay [16] concerns DU-145.
Assay [17] relates to MCF7.
The subject of assay [18] is MDA-N.
The subject of assay [19] is NCI/ADR-RES.
Assay [20] concerns SR.

Each structure is given as a SMILES string.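 1) Cells in 96-well plates. 2) Compound, 48 h, 5 concentrations. 3) Linear interpolation between surrounding doses. 4) Unreached endpoint = highest concentration. Abbreviation: GI50, concentration required for 50% inhibition of growth.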 Active and inactive are the calls of the source. No stated cut-off is given here; in the data, active = GI50 up to about 1.1 µM and inactive = higher. Where only a bound is given, the exact number is not on record here.

As for `COc1ccc(C2C(C(=O)O)=C(COC(C)=O)Oc3cc4c(cc32)OCO4)c(OC)c1` (stereo not given), the GI50 in assay [1], in [2], in assay [3], in assay [4], in assay [5] and in assay [6] was > 100 µM (inactive) each time. The GI50 in assay [7], in [8], in assay [9], in [10], in assay [11] and in assay [12] was > 100 µM (inactive) throughout. Moreover, the GI50 in assay [13] is > 100 µM (inactive).
With `O=C(O)[C@H](NS(=O)(=O)c1ccc([N+](=O)[O-])cc1)c1ccccc1`, the GI50 in [1], in assay [2], in [3], in assay [4], in assay [5] and in assay [6] was > 100 µM (inactive) throughout. Also, the GI50 in assay [7], in [14], in assay [8], in assay [9], in assay [10] and in assay [11] was > 100 µM (inactive) throughout. Besides, the GI50 in assay [12] and in assay [13] was > 100 µM (inactive) each time.
`COc1ccc([Se][Se]c2ccc(OC)cc2OC)c(OC)c1`: the GI50 is 18.2 µM (inactive) in [15]; 3.54 µM (inactive) in [1]; 6.79 µM (inactive) in [2]; 5.12 µM (inactive) in [3]; 3.25 µM (inactive) in assay [4]; 2.88 µM (inactive) in [5]. In addition, the GI50 in [6] is 2 µM (inactive); in [7] it was 2.92 µM (inactive); in assay [14] it was 1.86 µM (inactive); in [8], 2.1 µM (inactive); in [9], 2.13 µM (inactive); in [10], 2.16 µM (inactive). The GI50 is 3.64 µM (inactive) in assay [11] and 1.59 µM (inactive) in assay [12].
With `C/N=C(\N)c1ccc(NC(=N)c2ccc(C(=N)Nc3ccc(/C(N)=N/C)cc3)cc2)cc1`, the GI50 in assay [1], in [2], in assay [3], in assay [4], in assay [5] and in [6] was > 100 µM (inactive) in each case. Besides, the GI50 in assay [7], in [14], in assay [8], in assay [9], in [10] and in assay [11] was > 100 µM (inactive) throughout. In addition, the GI50 in [12] and in assay [13] was > 100 µM (inactive) each time.
Consider `Cn1cc2ccccc2c1-c1nc(F)nc(Oc2ccc3c(c2)CC[C@@H]2C3CC[C@]3(C)C(O)CCC23)n1` (stereo not given in full), for which the GI50 is > 10 µM (inactive) in assay [1]; 22.3 µM (inactive) in assay [2]; 19.8 µM (inactive) in assay [3]; 13.7 µM (inactive) in assay [4]; 29.2 µM (inactive) in assay [5]; 15.8 µM (inactive) in assay [6]. The GI50 was 15.9 µM (inactive) in assay [7]; 10.9 µM (inactive) in assay [14]; 14.2 µM (inactive) in assay [8]; 22.6 µM (inactive) in [9]; 16.3 µM (inactive) in assay [10]; 18.7 µM (inactive) in assay [11]. The GI50 in [12] was 14.2 µM (inactive); in assay [13], 12 µM (inactive).
For `CCC(C)C1NC(=O)C(NC(=O)C(CC(C)C)N(C)C(=O)[C@@H]2C=CCN2C(=O)[C@H](C)O)C(C)OC(=O)[C@H](Cc2ccc(OC)cc2)N(C)C(=O)[C@@H]2CCCN2C(=O)[C@H](CC(C)C)NC(=O)C(C)C(=O)[C@H](C(C)C)OC(=O)CC1O` (stereo not given in full), the GI50 is 0.00671 µM (active) in [15]; 0.00984 µM (active) in assay [1]; 0.00143 µM (active) in [2]; 0.00501 µM (active) in [16]; 0.00256 µM (active) in [4]; 0.0021 µM (active) in assay [5]. Besides, the GI50 was 0.00242 µM (active) in assay [6]; 0.00188 µM (active) in assay [7]; 0.00164 µM (active) in assay [17]; 0.00293 µM (active) in assay [18]; 0.00111 µM (active) in [14]; 0.0419 µM (active) in assay [19]. The GI50 was 0.00234 µM (active) in assay [8]; < 0.01 µM (active) in assay [9]; 0.00138 µM (active) in assay [10]; 0.00374 µM (active) in [11]; 0.00198 µM (active) in assay [12]; 0.000216 µM (active) in assay [20]. Besides, the GI50 in assay [13] was 0.00131 µM (active).
With `COc1ccc(/C=C2\C=Cc3ccccc32)cc1OC`, the GI50 in assay [15] was 39.4 µM (inactive); in [1], > 100 µM (inactive); in assay [2] it was > 100 µM (inactive); in assay [16], > 100 µM (inactive); in [4], 73.8 µM (inactive); in [5], 29.8 µM (inactive). The GI50 in assay [6] was > 100 µM (inactive); in assay [7] it was > 100 µM (inactive); in assay [17], > 100 µM (inactive); in assay [18], > 100 µM (inactive); in [14], 30.4 µM (inactive); in [19] it was > 100 µM (inactive). Besides, the GI50 in assay [8] is 29.9 µM (inactive); in [9], 50.4 µM (inactive); in [10], > 100 µM (inactive); in assay [11] it was > 100 µM (inactive); in [12] it was 20.6 µM (inactive); in [20] it was 50.9 µM (inactive). Moreover, the GI50 in [13] was 76 µM (inactive).
As for `CNC1=C(C)C(=O)C(C)=C(C(C)(C)CC(=O)n2cc(F)c(=O)[nH]c2=O)C1=O`, the GI50 was > 23.9 µM (inactive) in assay [15]; 22.8 µM (inactive) in [1]; 23.6 µM (inactive) in assay [2]; 23.1 µM (inactive) in assay [3]; 67 µM (inactive) in assay [4]; 32 µM (inactive) in [5]. Besides, the GI50 in assay [6] is 71 µM (inactive); in assay [7] it was 48.1 µM (inactive); in [14] it was 35 µM (inactive); in assay [9], > 100 µM (inactive); in assay [10], > 30.9 µM (inactive); in assay [11], > 65.8 µM (inactive). Further, the GI50 in assay [12] was 69.3 µM (inactive); in [13], > 75.9 µM (inactive).
Consider `O=C(NCCN1CCCCC1)c1ccc(Br)cc1`, for which the GI50 in [15] was 42.8 µM (inactive); in assay [1], > 100 µM (inactive); in assay [2], > 100 µM (inactive); in assay [16], > 100 µM (inactive); in [4], > 100 µM (inactive); in assay [5], > 100 µM (inactive). For the same compound, the GI50 in assay [6], in assay [7], in assay [17], in [18], in [14] and in assay [19] was > 100 µM (inactive) each time. Besides, the GI50 in [8] is > 100 µM (inactive); in [9], > 100 µM (inactive); in assay [10], > 100 µM (inactive); in [11], > 100 µM (inactive); in assay [12] it was 54.3 µM (inactive); in [20], > 100 µM (inactive). In addition, the GI50 in assay [13] is > 100 µM (inactive).
